Where two headings read alike, the source gives them in different places.
How the values were obtained:
Assay in all cases: Kinase Profiler, residual kinase activity
Format in all cases: biochemical
Settings in all cases: read-out: percentage of the remaining kinase activity
[1] = target: T1, MAP3K7 (Homo sapiens, UniProt O43318)
T1 construct: purchased Research Biology Corp. (http://www.reactionbiology.com)
T1 sequence (O43318 1-303 limits assumed): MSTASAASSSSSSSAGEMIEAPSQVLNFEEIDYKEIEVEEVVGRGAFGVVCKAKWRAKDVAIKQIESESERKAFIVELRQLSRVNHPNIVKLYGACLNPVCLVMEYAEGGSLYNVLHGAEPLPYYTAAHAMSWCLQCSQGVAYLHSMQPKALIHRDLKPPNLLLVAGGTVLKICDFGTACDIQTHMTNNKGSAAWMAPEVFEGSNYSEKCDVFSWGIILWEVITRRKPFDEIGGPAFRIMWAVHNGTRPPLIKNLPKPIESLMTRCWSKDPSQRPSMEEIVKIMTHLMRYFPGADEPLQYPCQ
Summary of the method: (§1)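 Data derive from a fee-for-service profiling run in which each inhibitor is screened against forty protein kinases.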

[2] = target: ALK (Homo sapiens, UniProt Q9UM73)
Summary of the method: as §1

[3] = target: BTK (Homo sapiens, UniProt Q06187)
Summary of the method: as §1

[4] = target: AKT1 (Homo sapiens, UniProt P31749)
Summary of the method: as §1

[5] = target: T2, AURKA (Homo sapiens, UniProt O14965)
T2 sequence (O14965 1-403): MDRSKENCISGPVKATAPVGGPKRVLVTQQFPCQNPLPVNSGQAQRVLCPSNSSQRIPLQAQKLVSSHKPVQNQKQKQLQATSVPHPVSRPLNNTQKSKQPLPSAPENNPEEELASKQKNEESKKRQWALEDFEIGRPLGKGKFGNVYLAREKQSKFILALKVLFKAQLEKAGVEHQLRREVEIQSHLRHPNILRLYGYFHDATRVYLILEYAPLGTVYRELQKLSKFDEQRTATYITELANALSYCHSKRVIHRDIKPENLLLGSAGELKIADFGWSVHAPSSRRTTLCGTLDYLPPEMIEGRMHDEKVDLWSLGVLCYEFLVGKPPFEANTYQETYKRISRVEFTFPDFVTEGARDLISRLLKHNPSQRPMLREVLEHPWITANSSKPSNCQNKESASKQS
Summary of the method: as §1

[6] = target: T3, MERTK (Homo sapiens, UniProt Q12866)
T3 sequence (Q12866 21-999): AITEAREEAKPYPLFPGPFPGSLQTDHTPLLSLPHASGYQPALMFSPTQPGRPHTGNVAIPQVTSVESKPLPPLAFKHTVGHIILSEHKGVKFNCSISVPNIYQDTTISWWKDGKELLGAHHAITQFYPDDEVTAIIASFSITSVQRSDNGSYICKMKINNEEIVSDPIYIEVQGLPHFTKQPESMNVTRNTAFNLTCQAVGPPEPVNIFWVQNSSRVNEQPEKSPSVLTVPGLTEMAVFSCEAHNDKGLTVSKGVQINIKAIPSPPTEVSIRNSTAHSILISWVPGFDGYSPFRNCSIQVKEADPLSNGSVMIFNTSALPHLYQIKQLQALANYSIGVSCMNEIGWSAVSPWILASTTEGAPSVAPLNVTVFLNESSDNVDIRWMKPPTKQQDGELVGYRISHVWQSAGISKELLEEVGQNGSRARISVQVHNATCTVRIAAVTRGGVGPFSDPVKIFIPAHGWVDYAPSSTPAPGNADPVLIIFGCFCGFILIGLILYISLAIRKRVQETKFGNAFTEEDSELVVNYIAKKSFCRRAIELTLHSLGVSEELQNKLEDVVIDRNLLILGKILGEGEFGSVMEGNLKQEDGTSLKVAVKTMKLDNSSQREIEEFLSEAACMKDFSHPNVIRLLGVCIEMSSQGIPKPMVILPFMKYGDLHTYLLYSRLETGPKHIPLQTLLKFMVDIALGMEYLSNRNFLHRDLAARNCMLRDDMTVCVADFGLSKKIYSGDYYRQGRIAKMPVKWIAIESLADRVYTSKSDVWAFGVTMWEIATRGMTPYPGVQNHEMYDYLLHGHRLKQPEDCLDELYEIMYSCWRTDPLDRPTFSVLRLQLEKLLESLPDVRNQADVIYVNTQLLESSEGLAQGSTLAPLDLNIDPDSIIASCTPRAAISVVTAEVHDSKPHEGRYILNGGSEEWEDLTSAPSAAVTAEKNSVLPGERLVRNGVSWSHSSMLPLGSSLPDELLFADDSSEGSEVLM
Summary of the method: as §1

[7] = target: PAK4 (Homo sapiens, UniProt O96013)
Summary of the method: as §1

Sequence of PAK4 (O96013 whole entry): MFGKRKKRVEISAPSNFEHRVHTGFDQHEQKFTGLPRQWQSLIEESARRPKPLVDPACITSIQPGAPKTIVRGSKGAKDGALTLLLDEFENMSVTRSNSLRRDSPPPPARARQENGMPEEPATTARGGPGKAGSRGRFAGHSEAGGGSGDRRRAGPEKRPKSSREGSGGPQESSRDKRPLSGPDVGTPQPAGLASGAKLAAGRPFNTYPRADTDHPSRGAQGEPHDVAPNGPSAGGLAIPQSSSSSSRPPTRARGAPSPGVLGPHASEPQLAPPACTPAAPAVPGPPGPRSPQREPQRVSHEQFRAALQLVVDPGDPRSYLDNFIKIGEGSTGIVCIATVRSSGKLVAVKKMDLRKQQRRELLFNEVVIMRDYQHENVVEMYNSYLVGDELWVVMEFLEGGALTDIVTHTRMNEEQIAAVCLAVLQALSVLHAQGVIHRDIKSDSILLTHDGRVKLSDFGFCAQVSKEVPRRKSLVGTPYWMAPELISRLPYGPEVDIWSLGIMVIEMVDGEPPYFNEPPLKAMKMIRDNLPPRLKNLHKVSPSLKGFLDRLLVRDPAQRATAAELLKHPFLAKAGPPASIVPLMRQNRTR
Sequence of AKT1 (P31749 whole entry): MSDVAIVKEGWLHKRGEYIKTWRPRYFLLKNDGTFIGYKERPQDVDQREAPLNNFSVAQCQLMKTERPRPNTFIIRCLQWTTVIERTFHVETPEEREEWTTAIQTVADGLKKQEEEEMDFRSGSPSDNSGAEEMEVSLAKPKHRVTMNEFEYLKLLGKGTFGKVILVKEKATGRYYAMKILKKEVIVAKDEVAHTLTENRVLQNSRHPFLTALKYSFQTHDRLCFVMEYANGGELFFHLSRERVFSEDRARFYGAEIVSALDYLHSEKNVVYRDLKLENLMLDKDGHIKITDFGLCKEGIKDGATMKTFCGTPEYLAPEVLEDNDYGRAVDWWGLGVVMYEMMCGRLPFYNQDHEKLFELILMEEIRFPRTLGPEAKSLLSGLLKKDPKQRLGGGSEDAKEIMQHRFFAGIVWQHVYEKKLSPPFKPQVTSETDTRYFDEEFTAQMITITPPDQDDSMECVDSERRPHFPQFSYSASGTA
Sequence of ALK (Q9UM73 19-1620): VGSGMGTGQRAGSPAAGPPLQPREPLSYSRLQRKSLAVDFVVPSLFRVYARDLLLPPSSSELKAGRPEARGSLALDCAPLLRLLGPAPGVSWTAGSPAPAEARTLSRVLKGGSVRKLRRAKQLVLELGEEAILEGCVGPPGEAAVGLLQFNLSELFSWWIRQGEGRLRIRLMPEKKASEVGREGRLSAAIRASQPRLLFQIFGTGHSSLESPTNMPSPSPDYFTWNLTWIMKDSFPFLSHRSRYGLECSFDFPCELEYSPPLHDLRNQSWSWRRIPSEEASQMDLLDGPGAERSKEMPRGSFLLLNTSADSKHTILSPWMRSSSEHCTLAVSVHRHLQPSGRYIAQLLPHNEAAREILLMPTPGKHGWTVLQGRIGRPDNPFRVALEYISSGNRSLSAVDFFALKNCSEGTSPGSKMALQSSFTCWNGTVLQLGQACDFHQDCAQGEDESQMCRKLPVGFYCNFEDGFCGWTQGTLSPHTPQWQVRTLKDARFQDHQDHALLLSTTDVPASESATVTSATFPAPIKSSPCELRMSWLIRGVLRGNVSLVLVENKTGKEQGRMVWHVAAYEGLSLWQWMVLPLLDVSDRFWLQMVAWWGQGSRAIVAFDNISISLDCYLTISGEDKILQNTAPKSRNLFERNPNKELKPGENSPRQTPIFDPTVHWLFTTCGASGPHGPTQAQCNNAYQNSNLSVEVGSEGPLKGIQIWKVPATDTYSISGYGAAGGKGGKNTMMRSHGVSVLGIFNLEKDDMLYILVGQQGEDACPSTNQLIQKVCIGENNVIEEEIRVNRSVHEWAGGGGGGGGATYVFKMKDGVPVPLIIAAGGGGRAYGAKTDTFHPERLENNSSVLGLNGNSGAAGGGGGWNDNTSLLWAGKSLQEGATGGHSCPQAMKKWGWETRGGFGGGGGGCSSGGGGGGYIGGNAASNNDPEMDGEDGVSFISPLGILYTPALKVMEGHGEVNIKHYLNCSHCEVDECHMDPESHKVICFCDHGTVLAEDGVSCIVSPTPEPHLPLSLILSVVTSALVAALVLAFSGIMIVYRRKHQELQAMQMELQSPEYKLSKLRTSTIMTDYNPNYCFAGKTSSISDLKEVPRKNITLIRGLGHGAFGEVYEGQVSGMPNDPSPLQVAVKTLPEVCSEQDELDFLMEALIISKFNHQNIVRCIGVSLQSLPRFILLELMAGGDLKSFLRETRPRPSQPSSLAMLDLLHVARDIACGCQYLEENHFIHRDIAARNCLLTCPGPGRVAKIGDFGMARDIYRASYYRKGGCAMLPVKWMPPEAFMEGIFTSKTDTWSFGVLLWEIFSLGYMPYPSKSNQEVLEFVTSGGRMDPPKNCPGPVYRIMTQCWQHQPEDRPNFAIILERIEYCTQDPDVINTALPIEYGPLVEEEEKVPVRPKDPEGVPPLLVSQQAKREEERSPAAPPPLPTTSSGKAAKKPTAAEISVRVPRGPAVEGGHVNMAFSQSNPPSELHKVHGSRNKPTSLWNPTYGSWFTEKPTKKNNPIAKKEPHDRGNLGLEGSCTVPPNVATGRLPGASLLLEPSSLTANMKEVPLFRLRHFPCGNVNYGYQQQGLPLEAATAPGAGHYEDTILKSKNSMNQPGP
Sequence of BTK (Q06187 whole entry): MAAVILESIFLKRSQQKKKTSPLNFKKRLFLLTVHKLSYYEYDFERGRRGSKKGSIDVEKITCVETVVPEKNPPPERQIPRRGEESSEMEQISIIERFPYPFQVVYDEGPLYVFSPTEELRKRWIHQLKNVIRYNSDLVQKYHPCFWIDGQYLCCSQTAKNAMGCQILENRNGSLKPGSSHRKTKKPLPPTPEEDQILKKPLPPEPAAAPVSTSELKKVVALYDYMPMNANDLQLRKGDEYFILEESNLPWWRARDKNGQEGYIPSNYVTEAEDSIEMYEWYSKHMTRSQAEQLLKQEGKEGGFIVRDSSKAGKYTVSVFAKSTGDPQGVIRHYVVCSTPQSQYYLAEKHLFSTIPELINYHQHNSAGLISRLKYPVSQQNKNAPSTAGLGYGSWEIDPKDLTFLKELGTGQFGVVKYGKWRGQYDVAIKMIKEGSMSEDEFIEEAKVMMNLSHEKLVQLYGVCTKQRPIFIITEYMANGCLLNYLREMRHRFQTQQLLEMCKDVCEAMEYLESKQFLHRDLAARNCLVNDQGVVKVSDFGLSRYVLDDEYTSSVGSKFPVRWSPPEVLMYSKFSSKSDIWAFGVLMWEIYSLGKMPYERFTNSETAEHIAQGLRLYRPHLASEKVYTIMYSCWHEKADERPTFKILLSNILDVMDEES

With `COC1C(N(C)C(=O)C(N)Cc2c[nH]cn2)CC2OC1(C)n1c3ccccc3c3c4c(c5c6ccccc6n2c5c31)C(=O)NC4` (stereo not drawn) [Compound 1] the remaining activity at 0.5 µM ([1]; MAP3K7, inhibitor at 500 nM) was 37.5%, the remaining activity at 0.5 µM ([2]; ALK, inhibitor at 500 nM) was 3.3% and the remaining activity at 0.5 µM ([3]; BTK, inhibitor at 500 nM) was 13.9%. It also gave a remaining activity at 0.5 µM ([4]; AKT1, inhibitor at 500 nM) of 19.6%, a remaining activity at 0.5 µM ([5]; AURKA, inhibitor at 500 nM) of 2.1% and a remaining activity at 0.5 µM ([6]; MERTK, inhibitor at 500 nM) of 26.7%. The remaining activity at 0.5 µM ([7]; PAK4, inhibitor at 500 nM) was 40.2%.

`COC1C(N(C)C(=O)C(N)Cc2cn(C(=O)OC(C)(C)C)c3ccccc23)CC2OC1(C)n1c3ccccc3c3c4c(c5c6ccccc6n2c5c31)C(=O)NC4` (stereo not drawn) [Compound 2] gave a remaining activity at 0.5 µM ([1]; MAP3K7, inhibitor at 500 nM) of 103%, a remaining activity at 0.5 µM ([2]; ALK, inhibitor at 500 nM) of 85.4% and a remaining activity at 0.5 µM ([3]; BTK, inhibitor at 500 nM) of 90.6%. The remaining activity at 0.5 µM ([4]; AKT1, inhibitor at 500 nM) was 97.6%, the remaining activity at 0.5 µM ([5]; AURKA, inhibitor at 500 nM) was 86.2% and the remaining activity at 0.5 µM ([6]; MERTK, inhibitor at 500 nM) was 96.8%. The remaining activity at 0.5 µM ([7]; PAK4, inhibitor at 500 nM) was 110%.

For `COC1C(N(C)C(=O)C(N)Cc2ccc(OC(C)(C)C)cc2)CC2OC1(C)n1c3ccccc3c3c4c(c5c6ccccc6n2c5c31)C(=O)NC4` (stereo not drawn) [Compound 4], the remaining activity at 0.5 µM ([1]; MAP3K7, inhibitor at 500 nM) was 98.6%, the remaining activity at 0.5 µM ([2]; ALK, inhibitor at 500 nM) was 56.7% and the remaining activity at 0.5 µM ([3]; BTK, inhibitor at 500 nM) was 65.4%. The remaining activity at 0.5 µM ([4]; AKT1, inhibitor at 500 nM) was 79.6%, the remaining activity at 0.5 µM ([5]; AURKA, inhibitor at 500 nM) was 19.7% and the remaining activity at 0.5 µM ([6]; MERTK, inhibitor at 500 nM) was 88.1%. For the same compound, the remaining activity at 0.5 µM ([7]; PAK4, inhibitor at 500 nM) was 95.2%.

Compound `COC1C(N(C)C(=O)C(N)Cc2ccc(O)cc2)CC2OC1(C)n1c3ccccc3c3c4c(c5c6ccccc6n2c5c31)C(=O)NC4` (stereo not drawn) [Compound 5] has a remaining activity at 0.5 µM ([1]; MAP3K7, inhibitor at 500 nM) of 70.7%, a remaining activity at 0.5 µM ([2]; ALK, inhibitor at 500 nM) of 29.1% and a remaining activity at 0.5 µM ([3]; BTK, inhibitor at 500 nM) of 37.8%. The remaining activity at 0.5 µM ([4]; AKT1, inhibitor at 500 nM) was 66.8%, the remaining activity at 0.5 µM ([5]; AURKA, inhibitor at 500 nM) was 4.9% and the remaining activity at 0.5 µM ([6]; MERTK, inhibitor at 500 nM) was 69.2%. The remaining activity at 0.5 µM ([7]; PAK4, inhibitor at 500 nM) was 53.3%.

In the case of `COC1C(N(C)C(=O)C(N)CCC(=O)OC(C)(C)C)CC2OC1(C)n1c3ccccc3c3c4c(c5c6ccccc6n2c5c31)C(=O)NC4` (stereo not drawn) [Compound 6], the remaining activity at 0.5 µM ([1]; MAP3K7, inhibitor at 500 nM) is reported as 84.2%, the remaining activity at 0.5 µM ([2]; ALK, inhibitor at 500 nM) is reported as 44.7% and the remaining activity at 0.5 µM ([3]; BTK, inhibitor at 500 nM) is reported as 43.6%. For the same compound, the remaining activity at 0.5 µM ([4]; AKT1, inhibitor at 500 nM) was 67.5%, the remaining activity at 0.5 µM ([5]; AURKA, inhibitor at 500 nM) was 5.3% and the remaining activity at 0.5 µM ([6]; MERTK, inhibitor at 500 nM) was 85.2%. The remaining activity at 0.5 µM ([7]; PAK4, inhibitor at 500 nM) was 80.8%.

With `COC1C(N(C)C(=O)C(N)CCC(=O)O)CC2OC1(C)n1c3ccccc3c3c4c(c5c6ccccc6n2c5c31)C(=O)NC4` (stereo not drawn) [Compound 7] the remaining activity at 0.5 µM ([1]; MAP3K7, inhibitor at 500 nM) was 27.8%, the remaining activity at 0.5 µM ([2]; ALK, inhibitor at 500 nM) was 4.7% and the remaining activity at 0.5 µM ([3]; BTK, inhibitor at 500 nM) was 11.9%. For the same compound, the remaining activity at 0.5 µM ([4]; AKT1, inhibitor at 500 nM) was 31.5%, the remaining activity at 0.5 µM ([5]; AURKA, inhibitor at 500 nM) was 0.9% and the remaining activity at 0.5 µM ([6]; MERTK, inhibitor at 500 nM) was 40%. The remaining activity at 0.5 µM ([7]; PAK4, inhibitor at 500 nM) was 38.4%.

Work on `COC1C(N(C)CCOc2cccc([N+](=O)[O-])c2)CC2OC1(C)n1c3ccccc3c3c4c(c5c6ccccc6n2c5c31)C(=O)NC4` (stereo not drawn) [Compound 8] yielded a remaining activity at 0.5 µM [1] of 63.5%, a remaining activity at 0.5 µM [2] of 19.5% and a remaining activity at 0.5 µM [3] of 53.9%. The remaining activity at 0.5 µM [4] was 52.3%, the remaining activity at 0.5 µM [5] was 12.1% and the remaining activity at 0.5 µM [6] was 63.1%. The remaining activity at 0.5 µM [7] was 99.9%.

`COC1C(N(C)Cc2ccc(-c3ccccc3)cc2)CC2OC1(C)n1c3ccccc3c3c4c(c5c6ccccc6n2c5c31)C(=O)NC4` (stereo not drawn) [Compound 9] gave a remaining activity at 0.5 µM ([1]; MAP3K7, inhibitor at 500 nM) of 69.4%, a remaining activity at 0.5 µM ([2]; ALK, inhibitor at 500 nM) of 17.6% and a remaining activity at 0.5 µM ([3]; BTK, inhibitor at 500 nM) of 55.8%. It also gave a remaining activity at 0.5 µM ([4]; AKT1, inhibitor at 500 nM) of 46.9%, a remaining activity at 0.5 µM ([5]; AURKA, inhibitor at 500 nM) of 11.2% and a remaining activity at 0.5 µM ([6]; MERTK, inhibitor at 500 nM) of 52.3%. It also gave a remaining activity at 0.5 µM ([7]; PAK4, inhibitor at 500 nM) of 91.8%.

In the case of `CN[C@@H]1C[C@H]2O[C@@](C)([C@@H]1OC)n1c3ccccc3c3c4c(c5c6ccccc6n2c5c31)C(=O)NC4` [STU, staurosporine, reference compound], the remaining activity at 0.5 µM [2] is reported as -0.3%, the remaining activity at 0.5 µM [4] is reported as 3.8% and the remaining activity at 0.5 µM [5] is reported as 0.2%. For the same compound, the remaining activity at 0.5 µM [6] was 1.1%.
